Laboratory results as given in BindingDB's records for patent US20250066368 (Shanghai Apeiron Therapeutics Company, 2025).

Target: T1, DNA polymerase theta [1792-2590] (UniProt O75417)
T1 construct: 1792-2590
T1 sequence (O75417 whole entry): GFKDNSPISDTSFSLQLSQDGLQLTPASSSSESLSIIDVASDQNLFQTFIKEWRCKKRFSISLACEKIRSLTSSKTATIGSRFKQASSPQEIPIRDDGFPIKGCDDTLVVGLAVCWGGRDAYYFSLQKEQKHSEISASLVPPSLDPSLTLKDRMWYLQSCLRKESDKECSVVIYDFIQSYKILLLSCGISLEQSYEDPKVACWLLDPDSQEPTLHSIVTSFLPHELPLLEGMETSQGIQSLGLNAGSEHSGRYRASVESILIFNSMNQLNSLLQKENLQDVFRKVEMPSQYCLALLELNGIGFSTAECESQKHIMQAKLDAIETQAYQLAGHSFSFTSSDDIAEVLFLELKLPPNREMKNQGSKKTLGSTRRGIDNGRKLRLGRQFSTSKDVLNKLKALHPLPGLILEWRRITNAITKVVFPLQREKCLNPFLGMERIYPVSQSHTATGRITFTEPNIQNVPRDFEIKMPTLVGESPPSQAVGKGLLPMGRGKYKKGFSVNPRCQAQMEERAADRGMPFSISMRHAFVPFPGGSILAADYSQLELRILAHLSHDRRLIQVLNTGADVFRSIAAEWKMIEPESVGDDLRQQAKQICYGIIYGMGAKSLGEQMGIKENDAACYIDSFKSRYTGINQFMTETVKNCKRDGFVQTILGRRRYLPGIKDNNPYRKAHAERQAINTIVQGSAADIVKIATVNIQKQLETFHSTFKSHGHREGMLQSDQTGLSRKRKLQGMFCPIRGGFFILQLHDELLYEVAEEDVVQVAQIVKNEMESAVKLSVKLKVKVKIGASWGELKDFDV
Assay: ADP-Glo Kinase Assay
Method: The ability of compounds to inhibit Pol 0 polymerase activity was determined by the PicoGreen method in vitro.The His-TEV-SUMO-tagged Polθ protein (amino acids 1792-2590) expressed in E. coli was purified and stored in aliquots at −80° C.The composition of the assay buffer is 25 mM Tris HCl pH 7.5, 12.5 mM NaCl, 0.5 mM MgCl2, 5% glycerol, 0.01% Triton X-100, 0.01% BSA, and 1 mM DTT.Test compounds were diluted in 100% DMSO and diluted three-fold into 10 concentration points in a dilution plate (Greiner-781280) using Bravo (Agilent) according to concentration requirements. The compounds diluted in DMSO were then diluted 20-fold in the assay buffer using Bravo. Further, 2 μl of diluted compounds were transferred to the assay plate (Corning-4512) using Bravo. The purified Pol 0 enzyme and primers ((primer strand: 5′-GCGGCTGTCATAAG-3′, SEQ ID NO: 1):(template strand: 5′-[…]-3′, SEQ ID NO: 2)=1:1.1) were prepared at a working concentration of 2.5× (1.5 nM Polθ and 50 nM PTD) in the assay buffer, transferred to the assay plate at 4 μl per well using an E1-CLIPTIP 12-channel pipette (Thermo, 1-30 l), and incubated at room temperature for 30 min. dNTP (Sigma-D7295) was diluted with the assay buffer to a working concentration of 2.5× (40 uM dNTP), transferred to the assay plate at 4 μl per well (final DMSO concentration of 1%) using an El-CLIPTIP 12-channel pipette (Thermo, 1-30 l), and incubated at room temperature for 60 min. A mixture containing 10 mM EDTA, 25 mM Tris pH 7.5, and a 1:200 diluted PicoGreen dye (Invitrogen-P7581) was added to the assay plate at 6 μl per well to stop the reaction. After 30 min of reaction at room temperature in the dark, fluorescence values were read on EnVision 2105 (PerkinElmer) using the Ex480 nm Em520 nm program, and the raw data was analyzed using XLfit to generate IC50 values.

SMILES	IC50 [µM]
CN(C(=O)[C@@H]1[C@H](O)[C@H](O)C(=O)N1c1cc(C(F)(F)F)c2c(n1)CCC2)c1cc(Cl)c(F)cc1F [US20250066368, Compound 7]	< 0.05
CN(C(=O)[C@@H]1CNC(=O)N1c1cc(C(F)(F)F)c2c(n1)C=CC2)c1ccc(F)c(Cl)c1F [US20250066368, Compound 21]	< 0.05
[2H]C([2H])([2H])N(C(=O)[C@@H]1[C@H](O)[C@H](O)C(=O)N1c1cc(C(F)(F)F)c2ncsc2n1)c1cc(Cl)c(F)cc1F [US20250066368, Compound 26]	< 0.05
[2H]C([2H])([2H])N(C(=O)C1[C@H](O)[C@H](O)C(=O)N1c1cc(C(F)(F)F)c2ccsc2n1)c1cc(Cl)c(F)cc1F (some centres not stated) [US20250066368, Compound 16]	< 0.05
[2H]C([2H])([2H])N(C(=O)[C@@H]1[C@H](O)[C@H](O)C(=O)N1c1cc(C(F)(F)F)c2cc[se]c2n1)c1cc(Cl)c(F)cc1F [US20250066368, Compound 46]	< 0.05
[2H]C([2H])([2H])N(C(=O)[C@@H]1[C@H](O)[C@H](O)C(=O)N1c1cc(C(F)(F)F)c2c(n1)C(=O)CC2)c1cc(Cl)c(F)cc1F [US20250066368, Compound 45]	< 0.05
[2H]C([2H])([2H])N(C(=O)[C@@H]1[C@H](O)[C@H](O)C(=O)N1c1cc(C(F)(F)F)c2c(n1)CC=C2)c1cc(Cl)c(F)cc1F [US20250066368, Compound 19]	< 0.05
